Data taken from US10869931B2, “Polyethylene glycol-modified angiogenesis inhibitor HM-1 and application thereof” (NANJING ANJI BIOLOGICAL TECHNOLOGY CO.,LTD, priority 2016, dated 2020).
Marks after values point to notes of the source that are not given here. Where no end group is shown, it is not given here.

Legend:
[1] = test system: Bladder Cancer tumor cells; experiment: MTT proliferation inhibition, bladder cancer cells; type: cell-based, human; parameters: concentration or dose not given beside the values; conditions: 48 h
Summary of the method: (§1)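 Tumour cells plated at 2×10^4 cells/mL, attached overnight, then exposed to dilutions of mPEG-HM-1 for 48 h at 37 °C, 5% CO2. MTT added 4 h, formazan dissolved in DMSO, absorbance 570/630 nm; growth inhibition = 1 − treated/untreated, three independent repeats, mean±SD.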

[2] = test system: human retinal vascular endothelial cells (HRCEC); experiment: MTT proliferation of human retinal vascular endothelial cells; type: cell-based; conditions: 48 h; for Inhibition rate: HRCEC proliferation; for A570 nm-A630 nm: HRCEC; for A570 nm-A630 nm / inhibition rate of HRCEC proliferation: MTT
Summary of the method: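 HRCEC seeded at 3.0×10^4 cells/mL, adhered overnight, then exposed to polypeptide dilutions for 48 h at 37° C, 5% CO2; medium-only blank control. MTT added for 4 h, formazan dissolved in DMSO. PI (%)=1−administration group/negative group; three independent repeats, mean±SD, t test.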

[3] = test system: corneal neovascularization in BALB/c mice; experiment: Alkali-burn corneal neovascularization in BALB/c mice (CD31 microvessel density); type: in vivo, mouse; conditions: for Inhibition rate: corneal microvessel density vs control; for Inhibition rate / MVD: day 14 after alkali burn, intravitreal once a day for 1 week; for MVD: microvessel density (CD31) of cornea; for inhibition rate of corneal neovascularization: BALB/c mice, alkali burn, intravitreal injection once a day for 1 week
Source text: (1) Preparation of corneal neovascularization model induced by alkali burn in BALB/c mice: mice were randomly grouped and labeled as mPEG-HM-1 experimental group and control group, 5 […] in each group, respectively, was given mPEG-HM-1 and saline by Intravitreal injection after alkali burn, once a day for 1 week. The inflammatory reaction and neovascularization of the cornea were observed under slit lamp microscope at 1 d, 7 d, and 14 d after alkali burn. On the 14th day after alkali burn, the corneal neovascularization was recorded under the slit lamp microscope in the anterior segment of the eye. All the mice were euthanized by cervical dislocation and the eyeballs were removed, washed with saline to rid of blood, and was fixed in 4% paraformaldehyde for 1.5 h, dehydrated in PBS containing 30% sucrose overnight, embedded in OCT frozen section embedding agent, stored in −80° C. refrigerator, frozen section 8 μm, and underwent immunocytochemical detection of CD31 expression. (2) Quantitative measurement of corneal tissue microvessel density: Microvessel density (MVD) is an indicator for evaluating angiogenesis. Vascular endothelial cells were labeled with anti-CD31 antibody by immunohistochemistry, and the number of microvessels per unit area was counted to measure the degree of neovascularization. Standards for counting microvessels: Microscopically, the endothelial cells or cell clusters that are clearly demarcated from adjacent tissues in the corneal tissue and stained brown or brown are counted in the neovascularization. The number of new blood vessels in the whole section was counted under a 10×20 microscope. After the corneal tissue was photographed, the entire corneal tissue area was calculated by image processing software Image J, and the neovascular density of the whole section was determined. The test was repeated 3 times independently. The results obtained by the test were expressed as mean±SD, and a statistical T test was performed. *P<0.05 was a significant difference, and **P<0.01 was a very significant difference.

[4] = test system: Cervical cancer tumor cells; experiment: MTT proliferation inhibition, cervical cancer cells; type: cell-based, human; parameters: concentration or dose not given beside the values; conditions: 48 h
Summary of the method: as §1

[5] = test system: carrageenan-induced toe swelling in SD rats; experiment: Carrageenan-induced acute toe swelling in rats; type: in vivo, rat; parameters: Swelling: unit not given here; conditions: for inhibition of carrageenan-induced toe swelling (in words): rats, once a day for 3 days
Method: SD rats were divided into blank model group, dexamethasone-positive group (5 mg/kg) and mPEG-HM-1 test group. The drug was administered once a day, and the model group was given the same volume of normal saline for 3 days and fed normally. At the first hour after the last administration, 0.1 mL of 1% carrageenan was injected subcutaneously into the right hind paw of the rats to induce inflammation. The volume of the foot was measured at 1 h, 3 h, 5 h, and 7 h after inflammation. The degree of swelling of the foot was calculated according to the following formula: the degree of swelling of the foot (mL)=the volume of the foot after inflammation−the volume before inflammation. Record the number of milliliters of spilled liquid (method: use the ballpoint pen to circle as the measurement mark at the protruding point of the right joint, and then put the right hind foot of each mouse into the volume measuring device, so that the hind limb is exposed outside the cylinder, and the depth of the immersion was determined by coinciding the circle with the liquid surface. After the foot enters the liquid, the liquid level rises, and the volume of the overflow liquid is the volume of the right hind foot of the rat, and the normal volume of the right hind foot of each mouse is sequentially determined).

[6] = 20 mg/kg once a day for 3 days, 1 h after carrageenan
[7] = 20 mg/kg once a day for 3 days, 3 h after carrageenan
[8] = 20 mg/kg once a day for 3 days, 5 h after carrageenan
[9] = 20 mg/kg once a day for 3 days, 7 h after carrageenan
[10] = 40 mg/kg once a day for 3 days, 1 h after carrageenan
[11] = 40 mg/kg once a day for 3 days, 3 h after carrageenan
[12] = 40 mg/kg once a day for 3 days, 5 h after carrageenan
[13] = 40 mg/kg once a day for 3 days, 7 h after carrageenan
[14] = 80 mg/kg once a day for 3 days, 1 h after carrageenan
[15] = 80 mg/kg once a day for 3 days, 3 h after carrageenan
[16] = 80 mg/kg once a day for 3 days, 5 h after carrageenan
[17] = 80 mg/kg once a day for 3 days, 7 h after carrageenan

Substance	rate of growth inhibition [1]	Inhibition rate ([2]; 40 μg/mL)	A570 nm-A630 nm ([2]; 40 μg/mL)	Inhibition rate ([2]; 60 μg/mL)	A570 nm-A630 nm ([2]; 60 μg/mL)	Inhibition rate [3]	MVD [3]	rate of growth inhibition [4]	Swelling [5, 6]	Swelling [5, 7]	Swelling [5, 8]	Swelling [5, 9]	Inhibition rate ([2]; 80 μg/mL)	A570 nm-A630 nm ([2]; 80 μg/mL)	Swelling [5, 10]	Swelling [5, 11]	Swelling [5, 12]	Swelling [5, 13]	Inhibition rate ([2]; 100 μg/mL)	A570 nm-A630 nm ([2]; 100 μg/mL)	also measured
mPEG-SC5k-Arg-Gly-Ala-Asp-Arg-Ala-Gly-Gly-Gly-Gly-Arg-Gly-Asp ({mPEG‑SC 5 kDa}-RGADRAGGGGRGD) [mPEG-SC5k-HM-1]	35.72 ± 11.52%	51.76%**	0.6323 ± 0.08797	62.10%*	0.4968 ± 0.08679	40.52%	39.69 ± 3.527*	51.11 ± 16.20%	0.23 ± 0.10	0.33 ± 0.20	0.38 ± 0.13	0.34 ± 0.15	–	–	–	–	–	–	–	–	Inhibition rate ([2]; 20 μg/mL): 42.22%*; A570 nm-A630 nm ([2]; 20 μg/mL): 0.7573 ± 0.09088; Swelling ([5]; 10 mg/kg once a day for 3 days, 1 h after carrageenan): 0.24 ± 0.12; Swelling ([5]; 10 mg/kg once a day for 3 days, 3 h after carrageenan): 0.37 ± 0.14; Swelling ([5]; 10 mg/kg once a day for 3 days, 5 h after carrageenan): 0.42 ± 0.16; Swelling ([5]; 10 mg/kg once a day for 3 days, 7 h after carrageenan): 0.32 ± 0.13
mPEG-SC10k-Arg-Gly-Ala-Asp-Arg-Ala-Gly-Gly-Gly-Gly-Arg-Gly-Asp ({mPEG‑SC 10 kDa}-RGADRAGGGGRGD) [mPEG-SC10k-HM-1]	42.76 ± 10.06%	46.44%*	0.7020 ± 0.07964	55.39%**	0.5847 ± 0.07356	52.17%	31.92 ± 3.648**	57.17 ± 18.40%	0.25 ± 0.11	0.38 ± 0.15	0.43 ± 0.17	0.31 ± 0.11	68.84%*	0.4084 ± 0.07298	0.22 ± 0.09	0.32 ± 0.19	0.37 ± 0.12	0.34 ± 0.13	–	–	inhibition rate of HRCEC proliferation ([2]; 80 μg/mL): 68.84%; inhibition rate of corneal neovascularization [3]: 52.17%
mPEG-SC20k-Arg-Gly-Ala-Asp-Arg-Ala-Gly-Gly-Gly-Gly-Arg-Gly-Asp ({mPEG‑SC 20 kDa}-RGADRAGGGGRGD) [mPEG-SC20k-HM-1]	50.39 ± 11.73%	–	–	45.71%*	0.7116 ± 0.07539	46.53%	35.68 ± 4.842**	62.93 ± 20.09%	–	–	–	–	53.92%**	0.6040 ± 0.06996	0.28 ± 0.14	0.35 ± 0.17	0.42 ± 0.15	0.37 ± 0.16	66.64%*	0.4372 ± 0.0721	Swelling [5, 14]: 0.26 ± 0.10; Swelling [5, 15]: 0.33 ± 0.12; Swelling [5, 16]: 0.40 ± 0.13; Swelling [5, 17]: 0.32 ± 0.17; inhibition of carrageenan-induced toe swelling (in words) ([5]; 80 mg/kg): most effective
mPEG-SC40k-Arg-Gly-Ala-Asp-Arg-Ala-Gly-Gly-Gly-Gly-Arg-Gly-Asp ({mPEG‑SC 40 kDa}-RGADRAGGGGRGD) [mPEG-SC40k-HM-1]	48.69 ± 11.61%	–	–	–	–	43.48%	37.72 ± 4.153**	61.52 ± 15.11%	–	–	–	–	42.27%*	0.7567 ± 0.07109	–	–	–	–	53.16%**	0.6139 ± 0.0712	Inhibition rate ([2]; 120 μg/mL): 63.68%*; A570 nm-A630 nm ([2]; 120 μg/mL): 0.4760 ± 0.07009; Swelling [5, 14]: 0.25 ± 0.13; Swelling [5, 15]: 0.34 ± 0.12; Swelling [5, 16]: 0.44 ± 0.15; Swelling [5, 17]: 0.34 ± 0.16; Swelling ([5]; 160 mg/kg once a day for 3 days, 1 h after carrageenan): 0.24 ± 0.12; Swelling ([5]; 160 mg/kg once a day for 3 days, 3 h after carrageenan): 0.33 ± 0.13; Swelling ([5]; 160 mg/kg once a day for 3 days, 5 h after carrageenan): 0.43 ± 0.12; Swelling ([5]; 160 mg/kg once a day for 3 days, 7 h after carrageenan): 0.33 ± 0.13
mPEG-bALD10k-Arg-Gly-Ala-Asp-Arg-Ala-Gly-Gly-Gly-Gly-Arg-Gly-Asp ({mPEG‑bALD 10 kDa}-RGADRAGGGGRGD) [mPEG-bALD10k-HM-1]	49.61 ± 12.12%	47.95%*	0.6931 ± 0.07754	57.43%**	0.5669 ± 0.07609	52.03%	32.01 ± 5.738**	80.08 ± 18.34%	–	–	–	–	75.19%*	0.3304 ± 0.07354	–	–	–	–	–	–	inhibition rate of HRCEC proliferation ([2]; 80 μg/mL): 75.19%; inhibition rate of corneal neovascularization [3]: 52.03%; inhibition of carrageenan-induced toe swelling (in words) ([5]; 40 mg/kg): most effective
mPEG-bALD20k-Arg-Gly-Ala-Asp-Arg-Ala-Gly-Gly-Gly-Gly-Arg-Gly-Asp ({mPEG‑bALD 20 kDa}-RGADRAGGGGRGD) [mPEG-bALD20k-HM-1]	45.24 ± 10.69%	–	–	47.53%*	0.6987 ± 0.07838	47.84%	34.81 ± 6.817**	78.57 ± 20.11%	–	–	–	–	57.32%**	0.5683 ± 0.07055	0.25 ± 0.15	0.35 ± 0.14	0.42 ± 0.15	0.36 ± 0.18	69.12%*	0.4112 ± 0.07405	–
